Assay [1] in a line: Dog weight-loss study, 2 hydroxyestrone oleate vs oleoyl-estrone (Example 10). As to conditions: oral 21 days, 5, 3.33 or 2.5 micromoles/kg vs OE 10 micromoles/kg. In kind it is in vivo. From the text: Dogs are selected and initial measurements taken. The initial measurements include weight and electrical impedance for each dog as measured by a standard impedance measuring device with electrodes placed between the front and rear paws. The dogs are placed individually in appropriate cages and allowed an ad libitum diet of standard dog chow and water for a 10-day period. Daily measurements include the following: • 1. Weight • 2. Weight of food consumed • 3. Water consumed, both volume and weight
Every other day, the dogs' electrical impedance is measured as an indicator of fat tissue content and loss. The dogs remain confined with out of cage activity or exercise for the duration of the experiment. This initial 10-day period establishes a pattern and average of weight gain, impedance change, and food and water consumption for each dog. […] This assures the dogs will readily accept the bread ball as a drug delivery device. […]
An appropriate volume of either OE or 2HOE is placed into the center of a thick piece of dense sweet bread (non-porous), carefully rolled into a small ball so none of the compound leaks out, and sprinkled on the outer surface with sugar or syrup as determined above. […] Electrical impedance of each dog is measured every other day.

Assay [2] in a line: Human study of 2 hydroxyestrone oleate (Example 11). In kind it is in vivo. As to conditions: humans, oral capsule, 0.75 or 0.375 micromoles/kg. As to the method:
In this random, double-blind, placebo controlled study, subjects are selected to one of three groups and take a capsule orally every morning containing one of the following: a) sunflower oil (placebo), b) 2 hydroxyestrone oleate dissolved in sunflower oil at a dose of 0.75 micromoles/kg, or c) 2 hydroxyestrone oleate dissolved in sunflower oil at a dose of 0.375 micromoles/kg. […]
Different tests are performed at least five different times during each study, namely at the screening of potential participants, at the beginning of the study, weekly during the trials, at the end of the first 4 week period and at the end of the second 4 week treatment period. • 1) SCREENING: Subjects are screened to exclude hypothyroidism, pregnancy, and heart disease. […] Subjects selected to participate in the studies have the following initial measurements: WEIGHT, WAIST to HIP RATIO, HEIGHT, BMI (calculated), BODY FAT % & TOTAL BODY FAT (via bioelectrical impedance method). […]
Ad libitum diets are followed, and food intake and appetite are assessed daily by the patient with an appropriate questionnaire and booklet. […]

A short description of assay [3]: Rabbit 10-day oral study: body weight and food consumed (Example 1). As to conditions: for FINAL WT.: one rabbit; for WT. Δ w/ Rx 10 days: control +0.14.
Procedure: During the first 3 weeks, rabbits were only weighed and allowed to eat. On the fourth week, all rabbits were given 0.05 cc dose of peanut oil.
Five New Zealand white rabbits were obtained and caged in their natural environment (outside) and fed a cafeteria, ad libitum diet of rabbit chow. […] The appropriate weights of OE or EE were diluted in peanut oil to provide concentrations as follows: 1) OE, 2 mg/0.05 cc; 2) EE, 1 mg/0.05 cc; 3) 0.33 mg/0.05 cc; 4) EE, 0.1mg/0.05 cc, 5) EE, 0.03 mg/0.05 cc
For the initial three weeks, the rabbits were given no medicine or oil. Body weight and food consumed were measured daily; establishing a daily average for food consumed and weight change.
Rabbits received the assigned dose for 10 consecutive days. Rabbit weight (kg) and food eaten (grams) were determined daily.
Setting [4] is: EE 1 mg/d vs OE 2 mg/d, oral, rabbits.

Marks after values point to notes of the source that are not given here.

For the compound `CCCCCCCC/C=C\CCCCCCCC(=O)Oc1cc2c(cc1O)[C@H]1CC[C@]3(C)C(=O)CC[C@H]3[C@@H]1CC2` [2HOE, 2 hydroxyestrone oleate], the “weight loss compared with dogs receiving oleoyl-estrone” value in assay [1] is given as “greater weight loss”. For the same compound, in assay [2], the appetite entry is “reduces appetite” and the “weight loss, loss of body fat, and/or decrease of body fat%” value was “produces weight loss”.

On to `CCCCCCCC/C=C\CCCCCCCCCC(=O)Oc1ccc2c(c1)CC[C@@H]1[C@@H]2CC[C@]2(C)C(=O)CC[C@@H]12` [EE, estrone eicosenoate], for which the “FINAL WT.” value is reported as 4.17* kg in assay [3] (EE 0.03 mg/d oral in peanut oil, 10 days, initial wt 4.00 kg); 3.56 kg in assay [3] (EE 0.2 mg/d oral in peanut oil, 10 days, initial wt 3.50 kg); 4.01 kg in assay [3] (EE 0.33 mg/d oral in peanut oil, 10 days, initial wt 4.09 kg); 3.37 kg in assay [3] (EE 1 mg/d oral in peanut oil, 10 days, initial wt 3.73 kg). In addition, the “WT. Δ w/ Rx 10 days” value in assay [3] (EE 0.03 mg/d oral, 10 days, pre-Rx 10 day avg. +0.125) is “+0.17 kg”; in assay [3] (EE 0.33 mg/d oral, 10 days, pre-Rx 10 day avg. +0.139) it was −0.08 kg; in assay [3] (EE 1 mg/d oral, 10 days, pre-Rx 10 day avg. +0.129), −0.36 kg. Further, the “FOOD/DAY AVG. w/ Rx” value came out at 158.5 grams in assay [3] (EE 0.03 mg/d oral, 10 days, pre-Rx avg 163.6); 131.0 grams in assay [3] (EE 0.2 mg/d oral, 10 days, pre-Rx avg 151.1); 150.4 grams in assay [3] (EE 0.33 mg/d oral, 10 days, pre-Rx avg 151.6); 31.9 grams in assay [3] (EE 1 mg/d oral, 10 days, pre-Rx avg 138.3). Also, the “amount of food eaten relative to the OE rabbit” value in assay [3] (setting [4]) is on record as “approximately ⅓”. Besides, in assay [3] (setting [4]), the “weight loss relative to OE over a 10-day period” value is recorded as “more than three times the weight loss”. Moreover, the “weight gained compared with the Control rabbit” value in assay [3] (EE at 1/10 the dose of OE (0.2 mg/d), 10 days) is listed as “less than half the weight gained by the Control rabbit”. For the same compound, the “weight gained compared with the control” value in assay [3] (EE at lowest dose (0.03 mg/d), 10 days) is “gained more weight than even the control”. The “weight loss less than that resulting from OE” value in assay [3] (EE at ⅙ the dose of OE (0.33 mg/d vs 2 mg/d), 10 days) amounted to 20%.

Values taken from patent publication US20100119595A1, “Monounsaturated fatty acids and perhydrocyclopentanophenanthrene nucleus combination molecules, and their precursors, and the use of all of these as weight-loss agents” (priority 2001, published 2010).
